# Literature values, collected in patent publication US20160175250A1, “Method for Making Liposomes Containing an Active Pharmaceutical Ingredient” (Tolmar Inc., priority 2014, published 2016).
# Conditions: patients receiving doses greater than 550 mg per square meter of body area
structure (smiles),measurement,value
"COc1cccc2c1C(=O)c1c(O)c3c(c(O)c1C2=O)C[C@@](O)(C(=O)CO)C[C@@H]3O[C@H]1C[C@H](N)[C@H](O)[C@H](C)O1 [doxorubicin, Doxorubicin]","congestive heart failure from cumulative dose dependent irreversible cardiomyopathy, share of patients",1-10%
